This passage reports IC50 results from patent US20240158385A1, “NOVEL COMPOUNDS” (Cerevance, Inc., priority 2021, published 2024).

pIC50: −log10 of the molar value. Like-named read-outs stand apart in the source and are kept apart here.

The target in the assay is T1, human KCNK13 (Homo sapiens, UniProt Q9HB14).
T1 construct: expressed in transfected cells
T1 sequence (Q9HB14 1-408): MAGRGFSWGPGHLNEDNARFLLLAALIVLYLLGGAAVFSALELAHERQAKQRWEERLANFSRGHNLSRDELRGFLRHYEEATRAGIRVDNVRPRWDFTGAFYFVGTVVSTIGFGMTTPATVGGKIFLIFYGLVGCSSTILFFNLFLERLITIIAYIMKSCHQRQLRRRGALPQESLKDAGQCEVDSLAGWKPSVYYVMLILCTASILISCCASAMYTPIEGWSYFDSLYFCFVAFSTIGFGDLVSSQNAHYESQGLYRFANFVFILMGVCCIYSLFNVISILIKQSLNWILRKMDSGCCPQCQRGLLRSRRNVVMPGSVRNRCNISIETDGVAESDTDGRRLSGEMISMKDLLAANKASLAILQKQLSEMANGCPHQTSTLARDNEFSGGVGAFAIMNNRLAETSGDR
The assay can be described thus: KCNK13 antagonist activity, thallium (Tl+) flux FLIPR assay. Format: cell-based. As to the method: KCNK13 antagonist activity was determined by measuring changes in intracellular Thallium (Tl^+) concentrations using a Tl^+ sensitive fluorescent dye. The changes in fluorescent signal were monitored by Fluorescent Imaging Plate Reader (FLIPR™) technology available from Molecular Devices, LLC, US. KCNK13 mediated increases in intracellular Tl+concentration were readily detected by addition of a thallium sulfate stimulus. 24 hours prior to the assay, human embryonic kidney 293 cells (HEK 293 cells) stably expressing human KCNK13 were seeded in cell culture medium in PDL coated black, clear-bottom 384-well plates (commercially available from Corning Inc., 356663) and grown overnight at 37° C., 5% CO2. On the day of the assay, cell culture media was removed and cells were loaded with potassium dye (commercially sold by Molecular Devices, LLC, US, R8222) for 1 hour at room temperature in the dark. Test compounds (at 10 point half log concentration response curves from […]) were added to cells for 15 minutes prior to the addition of thallium sulfate to all wells. The IC50 values were determined from ten point concentration response curves. Curves were generated using the average of two wells for each data point.

Setting [1] is: HEK 293 cells stably expressing human KCNK13, Tl+ sensitive dye, FLIPR, compounds 15 minutes prior to thallium sulfate, 10 point half log curves from 10 PM, read-out: hKCNK13 IC50.

Broadly, the pIC50 is the IC50 on a negative log10 scale, so that one unit is a factor of ten. As to `COc1ccc(Cn2c(-c3nonc3C)nc3cccnc32)cn1` [Example 16, 3-[3-[(6-methoxypyridin-3-yl)methyl]imidazo[4,5-b]pyridin-2-yl]-4-methyl-1,2,5-oxadiazole], the pIC50 under setting [1] was greater than 6.70.

With `Cc1nonc1-c1nc2c(F)cccc2n1Cc1cnc(C#N)cn1` [Example 42, 5-[[4-fluoro-2-(4-methyl-1,2,5-oxadiazol-3-yl)benzimidazol-1-yl]methyl]pyrazine-2-carbonitrile], under setting [1], the pIC50 is greater than 6.00. Same read-out and setting: the figure for `Nc1nonc1-c1nc2c(F)cccc2n1Cc1ccc(C(F)(F)F)nn1` (single isomer, unassigned) [Example 167, 4-(4-fluoro-1-((6-(trifluoromethyl)pyridazin-3-yl)methyl)-benzimidazol-2-yl)-1,2,5-oxadiazol-3-amine] is greater than 6.00; for `Cc1cc(C)nc(Cn2c(-c3nonc3C)nc3ccccc32)c1` [Example 75, 3-[1-[(4,6-dimethylpyridin-2-yl)methyl]benzimidazol-2-yl]-4-methyl-1,2,5-oxadiazole] it is greater than 6.30.

As for `CCOc1cccc2nc(-c3nonc3C)n(Cc3ccncc3)c12` [Example 70, 3-[7-ethoxy-1-(pyridin-4-ylmethyl)benzimidazol-2-yl]-4-methyl-1,2,5-oxadiazole], under setting [1], the pIC50 is greater than 6.30. As to `COc1ccc(Cn2c(-c3nonc3N)nc3cccnc32)cn1` [Example 14, 4-[3-[(6-methoxypyridin-3-yl)methyl]imidazo[4,5-b]pyridin-2-yl]-1,2,5-oxadiazol-3-amine], the negative logarithm of the IC50 (pIC50) under setting [1] is greater than 6.70. As for `Nc1nonc1-c1nc2c(F)cccc2n1Cc1ccc(Cl)nn1` (single isomer, unassigned) [Example 149, 4-(1-((6-chloropyridazin-3-yl)methyl)-4-fluoro-benzimidazol-2-yl)-1,2,5-oxadiazol-3-amine], the pIC50 under setting [1] is greater than 7.00. For `Cc1nonc1-c1nc2cccnc2n1Cc1ccc(Cl)nc1` [Example 24, 3-[3-[(6-chloropyridin-3-yl)methyl]imidazo[4,5-b]pyridin-2-yl]-4-methyl-1,2,5-oxadiazole], the pIC50 is greater than 7.00. In the case of `CNc1nsnc1-c1nc2ccccc2n1Cc1cccnc1` [Example 96, N-methyl-4-[1-(pyridin-3-ylmethyl)benzimidazol-2-yl]-1,2,5-thiadiazol-3-amine], the pIC50 under setting [1] was greater than 7.00. Same read-out and setting: under `Cc1snnc1-c1nc2c(F)cccc2n1Cc1cccnc1` (single isomer, unassigned) [Example 129, 4-[4-fluoro-1-(pyridin-3-ylmethyl)benzimidazol-2-yl]-5-methyl-1,2,3-thiadiazole] stands greater than 7.00; under `Cc1nonc1-c1nc2ccccc2n1Cc1ccccn1` [Example 79, 3-methyl-4-[1-(pyridin-2-ylmethyl)benzimidazol-2-yl]-1,2,5-oxadiazole], greater than 6.30.

In the case of `Nc1nonc1-c1nc2cccc(F)c2n1Cc1ccc(C(F)(F)F)nn1` (single isomer, unassigned) [Example 166, 4-(7-fluoro-1-((6-(trifluoromethyl)pyridazin-3-yl)methyl)-benzimidazol-2-yl)-1,2,5-oxadiazol-3-amine], the pIC50 under setting [1] is greater than 7.00.

As for `Cc1nonc1-c1nc2cccnc2n1Cc1ccc(C#N)nn1` [Example 18, 6-[[2-(4-methyl-1,2,5-oxadiazol-3-yl)imidazo[4,5-b]pyridin-3-yl]methyl]pyridazine-3-carbonitrile], the pIC50 under setting [1] is greater than 6.30.

Take `N#Cc1ncc(Cn2c(-c3nonc3N)nc3c(F)ccc(F)c32)cn1` [Example 28, 5-[[2-(4-amino-1,2,5-oxadiazol-3-yl)-4,7-difluoro-benzimidazol-1-yl]methyl]pyrimidine-2-carbonitrile]: under setting [1], the negative logarithm of the IC50 (pIC50) was greater than 7.30. Same read-out and setting: under `Nc1nonc1-c1nc2c(F)ccc(F)c2n1Cc1ccncc1` [Example 155, 4-(4,7-difluoro-1-(pyridin-4-ylmethyl)-benzimidazol-2-yl)-1,2,5-oxadiazol-3-amine] stands greater than 7.30. On the same count and under the same terms, under `COc1ccc(Cn2c(-c3nonc3N)nc3c(F)cccc32)nn1` (single isomer, unassigned) [Example 153, 4-(4-fluoro-1-((6-methoxypyridazin-3-yl)methyl)-benzimidazol-2-yl)-1,2,5-oxadiazol-3-amine] stands greater than 6.70. On the same count and under the same terms, the figure for `Cc1nonc1-c1nc2c(F)ccc(F)c2n1Cc1cccnn1` [Example 185, 3-(4,7-difluoro-1-(pyridazin-3-ylmethyl)-benzimidazol-2-yl)-4-methyl-1,2,5-oxadiazole] is greater than 7.30.

For the compound `Cc1onc(-c2nc3ccccc3n2Cc2cccnc2)c1C` [Example 111, 4,5-dimethyl-3-[1-(pyridin-3-ylmethyl)benzimidazol-2-yl]isoxazole], under setting [1], the pIC50 is greater than 6.30. The same measure, in the same setting: the figure for `Nc1nonc1-c1nc2cccc(F)c2n1Cc1ccnnc1` (single isomer, unassigned) [Example 132, 4-(7-fluoro-1-(pyridazin-4-ylmethyl)-benzimidazol-2-yl)-1,2,5-oxadiazol-3-amine] is greater than 7.30; for `Nc1nsnc1-c1nc2c(F)cccc2n1Cc1cccnn1` (single isomer, unassigned) [Example 157, 4-(4-fluoro-1-(pyridazin-3-ylmethyl)-benzimidazol-2-yl)-1,2,5-thiadiazol-3-amine] it is greater than 6.70; for `Cc1nonc1-c1nc2cccc(F)c2n1Cc1ccc(C#N)nn1` [Example 46, 6-[[7-fluoro-2-(4-methyl-1,2,5-oxadiazol-3-yl)benzimidazol-1-yl]methyl]pyridazine-3-carbonitrile] it is greater than 7.00.

With `N#Cc1ncc(Cn2c(-c3nonc3N)nc3c(F)cccc32)cn1` (single isomer, unassigned) [Example 26, 5-[[2-(4-amino-1,2,5-oxadiazol-3-yl)-4-fluoro-benzimidazol-1-yl]methyl]pyrimidine-2-carbonitrile], the pIC50 under setting [1] was greater than 7.00. On the same count and under the same terms, under `[2H]C([2H])(c1cccnc1)n1c(-c2nonc2C)nc2cccc(F)c21` (single isomer, unassigned) [Example 31, 3-[1-[dideuterio(pyridin-3-yl)methyl]-7-fluoro-benzimidazol-2-yl]-4-methyl-1,2,5-oxadiazole] stands greater than 7.30. For `Fc1nsnc1-c1nc2ccccc2n1Cc1cccnc1` [Example 108, 3-fluoro-4-[1-(pyridin-3-ylmethyl)benzimidazol-2-yl]-1,2,5-thiadiazole], under setting [1], the pIC50 is greater than 6.30. On to `Nc1nonc1-c1nc2ccc(F)cc2n1Cc1ccncc1` [Example 91, 4-[6-fluoro-1-(pyridin-4-ylmethyl)benzimidazol-2-yl]-1,2,5-oxadiazol-3-amine], for which the pIC50 under setting [1] is greater than 7.30. Same read-out and setting: under `CC(c1cccnc1)n1c(-c2nonc2N)nc2ccccc21` (racemic) [Example 85, rac-4-[1-[1-(pyridin-3-yl)ethyl]benzimidazol-2-yl]-1,2,5-oxadiazol-3-amine] stands greater than 5.30; under `Cc1nonc1-c1nc2ccccc2n1Cc1cc[n+]([O-])cc1` [Example 77, 3-methyl-4-[1-[(1-oxidopyridin-1-ium-4-yl)methyl]benzimidazol-2-yl]-1,2,5-oxadiazole], greater than 6.00. `Nc1nonc1-c1nc2ncc(F)cc2n1Cc1ccc(Cl)nc1` [Example 159, 4-(1-((6-chloropyridin-3-yl)methyl)-6-fluoro-1H-imidazo[4,5-b]pyridin-2-yl)-1,2,5-oxadiazol-3-amine] gave a pIC50 greater than 7.30. With `N#Cc1cnc(Cn2c(-c3nonc3N)nc3cccc(F)c32)cn1` [Example 35, 5-[[2-(4-amino-1,2,5-oxadiazol-3-yl)-7-fluoro-benzimidazol-1-yl]methyl]pyrazine-2-carbonitrile], the pIC50 under setting [1] was greater than 7.30.

As for `CNc1cccc2nc(-c3nonc3C)n(Cc3cccnc3)c12` [Example 81, N-methyl-2-(4-methyl-1,2,5-oxadiazol-3-yl)-3-(pyridin-3-ylmethyl)benzimidazol-4-amine], the pIC50 under setting [1] is greater than 6.00. The same measure, in the same setting: the figure for `Cc1nonc1-c1nc2ccccc2n1Cc1cccnc1` [Example 101, 3-methyl-4-[1-(pyridin-3-ylmethyl)benzimidazol-2-yl]-1,2,5-oxadiazole] is greater than 7.00; for `Cc1nonc1-c1nc2cc(F)cc(F)c2n1Cc1cccnc1` [Example 27, 3-[5,7-difluoro-1-(pyridin-3-ylmethyl)benzimidazol-2-yl]-4-methyl-1,2,5-oxadiazole] it is greater than 7.30.

As to `Nc1nonc1-c1nc2ccc(F)c(F)c2n1Cc1ccncc1` [Example 145, 4-(6,7-difluoro-1-(pyridin-4-ylmethyl)-benzimidazol-2-yl)-1,2,5-oxadiazol-3-amine], under setting [1], the negative logarithm of the IC50 (pIC50) is greater than 7.30. Same read-out and setting: the figure for `Nc1nonc1-c1nc2cccc(F)c2n1Cc1ccc(O)nn1` [Example 150, 6-((2-(4-amino-1,2,5-oxadiazol-3-yl)-7-fluoro-benzimidazol-1-yl)methyl)pyridazin-3-ol] is greater than 6.70.
